Values after ≈ are worked out from the molar mass of the structure shown.
Key:
HeLa = experiment: Compound was tested in vitro for cytotoxicity against HeLa cells.; assay type: functional, cell-based, Homo sapiens
Mus musculus [1] = experiment: Compound was tested in vivo antitumor activity against Ehrlich ascites in mice at 12.5 mg/kg ip; assay type: functional; conditions: route intraperitoneal
Mus musculus [2] = experiment: Compound was tested in vivo antitumor activity against Ehrlich ascites in mice at 100 mg/kg ip; assay type: functional; conditions: route intraperitoneal
[3] = Compound was tested for initial contractile force 0.4+/-0.1 g (% deltabase line value)
Mus musculus [4] = experiment: Compound was tested in vivo antitumor activity against Ehrlich ascites in mice at 50 mg/kg ip; assay type: functional; conditions: route intraperitoneal
Mus musculus [5] = experiment: Compound was tested in vivo antitumor activity against Ehrlich ascites in mice at 6.25 mg/kg ip; assay type: functional; conditions: route intraperitoneal
Mus musculus [6] = experiment: Compound was tested in vivo antitumor activity against Ehrlich ascites in mice at 25 mg/kg ip; assay type: functional; conditions: route intraperitoneal
Cavia porcellus = species on record: Cavia porcellus; experiment: Positive inotropic activity in isolated guinea pig atria, Concentration producing 50% of the maximal effect; assay type: functional
Mus musculus [7] = experiment: Compound was tested in vivo antitumor activity against Ehrlich ascites in mice at 1 mg/kg ip; assay type: functional; conditions: route intraperitoneal
[8] = Compound was tested for concentration to obtain Emax (microg)

Compound | IC50 (HeLa) [µg/mL] | Delta [3] [%] | T/C (Mus musculus [4]) [%] | further results
N=C(N)N/N=C/c1c(-c2ccc(Cl)c(Cl)c2Cl)nc2sccn12 | 2 (≈ 5.16 µM) | – | – | T/C (Mus musculus [1]): 180%
N=C(N)N/N=C/c1c(Cl)nc2sc(Cl)cn12 | > 10 | 135 | – | T/C (Mus musculus [2]): 120%
Cc1csc2nc(Cl)c(/C=N/N=C(N)N)n12 | > 10 | 134 | 106 | –
N=C(N)N/N=C/c1c(-c2ccc(Cl)cc2)nc2sc(Cl)cn12 | 0.6 (≈ 1.7 µM) | 100 | – | T/C (Mus musculus [1]): 166%
N=C(N)N/N=C/c1c(-c2ccc(Cl)cc2Cl)nc2n1CCS2 | 5 (≈ 14.1 µM) | 119 | 200 | –
Cc1sc2nc(-c3ccc(Cl)cc3)c(/C=N/N=C(N)N)n2c1C | 2 (≈ 5.77 µM) | 118 | – | T/C (Mus musculus [1]): 140%
Cc1cn2c(/C=N/N=C(N)N)c(-c3ccc(Cl)cc3)nc2s1 | 1.5 (≈ 4.51 µM) | 106 | – | T/C (Mus musculus [5]): 166%
Cc1csc2nc(-c3ccc(Cl)cc3)c(/C=N/N=C(N)N)n12 | 2 (≈ 6.01 µM) | 115 | – | T/C (Mus musculus [6]): 133%
N=C(N)N/N=C/c1c(-c2ccc(Cl)c(Cl)c2Cl)nc2n1CCS2 | 2.5 (≈ 6.42 µM) | 111 | 166 | –
N=C(N)N/N=C/c1c(-c2ccc(Cl)cc2Cl)nc2sccn12 | 2.5 (≈ 7.08 µM) | 100 | – | T/C (Mus musculus [6]): 146%
Cc1sc2nc(Cl)c(/C=N/N=C(N)N)n2c1C | > 10 | 137 | 100 | –
Cc1cn2c(/C=N/N=C(N)N)c(Cl)nc2s1 | > 10 | 146 | 106 | EC50 (Cavia porcellus): 0.016 mg
COc1cccc2c1C(=O)c1c(O)c3c(c(O)c1C2=O)C[C@@](O)(C(=O)CO)C[C@@H]3O[C@H]1C[C@H](N)[C@H](O)[C@H](C)O1 [DOXORUBICIN] | 0.005 (≈ 0.0092 µM) | – | – | T/C (Mus musculus [7]): 200%
O=c1[nH]cc(F)c(=O)[nH]1 [FLUOROURACIL] | 6 (≈ 46.1 µM) | – | – | T/C (Mus musculus [2]): 180%
COc1cc([S+](C)[O-])ccc1-c1nc2ncccc2[nH]1 (configuration not stated) [SULMAZOLE] | – | 163 | – | Emax [8]: 350 µg

Source: ChEMBL document CHEMBL1129045, “Potential antitumor agents. 24. Synthesis and pharmacological behavior of imidazo[2,1-b]thiazole guanylhydrazones bearing at least one chlorine” (J Med Chem, 1996)
